Assay results taken from patent publication US7015251B1 (priority 1999, dated 2006).
Values after ≈ are worked out from the molar mass of the structure shown. “Also recorded” adds a separate entry of the source.

Legend:
LnCap = assay: MTT dye assay at 72 hrs, LnCap; format: cell-based, human
Tu138 cells [1] = assay: Tu138 TUNEL assay for apoptosis; format: cell-based, human
Experimental: (§1) At the end of either 24 or 48 hours, cells were trypsinized and washed with the culture medium. For cell cycle measurements, cells were mixed with 0.5 ml of 0.1% propidium iodide solution (New Concepts Scientific Ltd. ON) containing 0.1% sodium citrate and 0.1% NP-40. RNase (1 μg) was added to each sample and cells were incubated at 4° C. for 30 minutes. At least 1×10^4 cells were acquired on a precalibrated FACScan (Beckton Dickinson, Calif.) flow cytometer. For precalibration “DNA QC” (Becton Dickinson, Calif.) kit was utilized. The acquired cells were then subjected to cell cycle analysis by the use of “Modfit LT” software (Beckton Dickinson, Calif.). For measurements of apoptosis, In Situ Cell Death Detection Kit (Boehringer Manheim, Ind.) followed by flow cytometry analysis was utilized.

Jurkat = assay: MTT dye assay at 72 hrs, Jurkat; format: cell-based, human
Jurkat cells [2] = assay: Jurkat cell cycle analysis (propidium iodide, FACScan); format: cell-based, human; settings: 24 hours
Text: Cell Cycle Analysis. […] Pie graphs (FIGS. 3A–F) were generated and normalized to a control value of 100%.

tumor cell lines = assay: MTT dye assay at 72 hrs, tumor cell lines tested (ID50); format: cell-based, human
RWP-2 = assay: MTT dye assay at 72 hrs, RWP-2; format: cell-based, human
Tu138 cells [3] = settings: for Tumor Size (mm^2) at Week 5 / reduction in tumor growth / tumor size vs vehicle control: paclitaxel 120 μg and/or ceramide 500 μg in cremophore; for Tumor Size (mm^2) at Week 5: s.c. near tumor thrice weekly from day 4 for 5 weeks; for reduction in tumor growth / tumor size vs vehicle control: s.c., week 5 (Table 3)
Text: The vehicle control consisted of cremophore only at the concentration utilized in the combination treatment.
In a separate experiment nude mice were implanted with 1−2×10^6 Tu138 cells. […] The vehicle control consisted of cremophore only at the concentration utilized in the combination treatment.

Jurkat cells [4] = assay: Jurkat cell proliferation assay (3H-thymidine uptake); format: cell-based, human
Experimental: Cell Proliferation Assays. […] DNA synthesis was assessed by the addition of ^3H-thymidine (1 μCi/well; specific activity—6.7 Ci/mmol; ICN Pharmaceuticals, Costa Mesa, Calif.) uptake 24 hours before the end of the 72 hour growth period at a final concentration of 1 μCi/well.

Jurkat cells [5] = assay: Jurkat histologic evaluation (Wright's stain); format: cell-based, human; settings: 48 hours
Experimental: Histologic Evaluation. […] Wright's stains of all slides were performed using an automated Hemastainer (Geometric Data, Wayne, Pa.). Slides were analyzed microscopically, photographed (Olympus BH 2, Tokyo, Japan) at 100, 200, and 400 power, and evaluated for morphological changes.

Tu138 tumor = Tu138 tumor in nude mice, intraperitoneal treatment; settings: paclitaxel 120 μg and/or ceramide 500 μg, within 4 weeks of administration
TU138 = assay: MTT dye assay at 72 hrs, TU138; format: cell-based, human
Tu138 cells [6] = assay: Tu138 cell cycle measurements (flow cytometry); format: cell-based, human; settings: for effect on cell cycle progression: ceramide 25 μg/ml alone, 24 or 48 hours, n=4; for cells blocked in the G2-M phase: paclitaxel 600 ng/ml
Experimental: as §1

Tu138 cells [7] = assay: Tu138 MTT dye assay (cytotoxicity, isobologram); settings: for cytotoxicity: 3 days of culture; for cell cytotoxicity (time kinetics): ceramide 25 μg/ml alone; for ED50 (cytotoxicity, MTT): n=6, 3 days
Experimental: Tu138, an adherent squamous carcinoma cell line of the head and neck was established at U T M D Anderson Cancer Center, Houston, Tex. (20, 21) and was generously provided by Dr. Gary Clayman's laboratory. Tu138 cells were maintained routinely in T-75 culture flasks (Falcon, Inc., NJ) at a plating cell density of 0.1×10^6 per 75 sq. cm. surface area in complete D-MEM/F-12 culture medium (10 ml) containing 10% fetal bovine serum (FBS, Atlanta Biologicals, Ga.), 2 mM glutamine (Gibco, NY), 50 units/mL penicillin, […] streptomycin (Gibco, NY) and 20 mM Hepes (Sigma, MO) in a 5% CO2 atmosphere at 37° C. Tu138 cells were replenished with fresh complete culture medium twice weekly until confluence.
At the indicated times (24 to 72 hours), cells were subjected to (a) tetrazolium-based dye assay for cell survival measurements, (b) flow cytometry analysis for cell cycle progression and (c) measurements of apoptosis by TUNEL assay.
(22). At the end of an incubation period of 4 hours, culture plates were centrifuged at 300 g for 2 minutes.

PC-3 = assay: MTT dye assay at 72 hrs, PC-3; format: cell-based, human
Tu138 cell-tumor = assay: Tu138 tumor in nude mice, subcutaneous treatment near tumor site
Experimental: To corroborate in vitro findings Tu138 cells were planted subcutaneously on nude mice. […] Tumor size was measured once a week. All groups of mice were sacrificed on day 45 and excised tumors were weighed.

Jurkat cells [8] = assay: Jurkat TUNEL assay for apoptosis; format: cell-based, human; settings: 48 hours
Experimental: Terminal deoxynucleotide transferase (TdT) mediated deoxyuridine triphosphate (dUTP) nick-end labeling (TUNEL) assay. […] At 24 and 48 hours, DNA strand breaks were labeled with TUNEL assay (In Situ Cell Death Detection Kit, Fluorescein; Boehringer Mannheim, Indianapolis, Ind.), and cellular apoptosis was measured by flow cytometry.

HT29 = assay: MTT dye assay at 72 hrs, HT29; format: cell-based, human
recurrent breast cancer = settings: single agent, cited from earlier work
MCF-7 = MCF-7 cell cycle progression; format: cell-based, human
[9] = n=25, 250 mg/m^2, 24 hour infusion every 21 day interval
[10] = Homo sapiens, read-out: % Growth Inhibition

CCCCCCCCCCCCC/C=C/[C@@H](O)[C@H](CO)NC(=O)CCCCC [Ceramide, N-hexanoyl-D-sphingosine]
% Growth Inhibition (LnCap; CERAMIDE (25 μg/nl) alone, LnCap): 25% | apoptosis (TUNEL) (Tu138 cells [1]; ceramide 25 μg/ml alone, 24 hours): 9.7% | apoptosis (TUNEL) (Tu138 cells [1]; ceramide 25 μg/ml alone, 48 hours): 13.6% | % Growth Inhibition (Jurkat; CERAMIDE (25 μg/nl) alone): 8% | cell cycle pattern (Jurkat cells [2]; ceramide treatment, 10% fetal bovine serum): did not differ from the non-ceramide-exposed control | calculated ID50 (cytotoxicity) (tumor cell lines; ceramide, approximately): 30.0 to 40.0 µg/mL | % Growth Inhibition (RWP-2; CERAMIDE (25 μg/nl) alone, RWP-2): 6% | toxicity (Tu138 cells [3]; ceramide delivered in cremophore, nude mice): no toxicity | Tumor Size (mm^2) at Week 5 (Tu138 cells [3]): 109.5 ± 14.1 mm^2 | reduction in tumor growth / tumor size vs vehicle control (Tu138 cells [3]): 44.7% | [3H]thymidine uptake counts ± SD (Jurkat cells [4]; Ceramide 25 μg/ml, Experiment 1): 378245 ± 28689 cpm | [3H]thymidine uptake counts ± SD (Jurkat cells [4]; Ceramide 25 μg/ml, Experiment 2): 415740 ± 6168 cpm | [3H]thymidine uptake counts ± SD (Jurkat cells [4]; Ceramide 25 μg/ml, Experiment 3): 301993 ± 67599 cpm | [3H]thymidine uptake counts ± SD (Jurkat cells [4]; Ceramide 25 μg/ml, Experiment 4): 259230 ± 54914 cpm | [3H]thymidine uptake counts ± SD (Jurkat cells [4]; Ceramide 25 μg/ml, Experiment 5): 189052 ± 3534 cpm | growth inhibition (Jurkat cells [4]; ceramide added alone, all test concentrations (0 to 50 μg/ml), 10% fetal bovine serum): ≤ 6% | ceramide-mediated growth inhibition (Jurkat cells [4]; low serum (1%)): > 99% | morphological changes (Wright's stain) (Jurkat cells [5]; ceramide 25 μg/ml, 10% serum): morphologically indistinguishable from control cells | tumor size / tumor burden reduction in comparison to control (vehicle) (Tu138 tumor): no significant effect | % Growth Inhibition (TU138; CERAMIDE (25 μg/nl) alone, TU138): 28% | effect on cell cycle progression (Tu138 cells [6]): did not significantly affect either G0–G1 or G2-M phase | effect on cell cycle progression (Tu138 cells [6]; listed as ceramide): no significant effect | cytotoxicity (Tu138 cells [7]; ceramide 12.5 μg/ml): 19% | cell cytotoxicity (time kinetics) (Tu138 cells [7]; 24 hours): 32.7% | cell cytotoxicity (time kinetics) (Tu138 cells [7]; 72 hours): 54.5% | cytotoxicity (Tu138 cells [7]; ceramide 25 μg/ml): 46% | ED50 (cytotoxicity, MTT) (Tu138 cells [7]; ceramide alone): 22 ± 5 µg/mL (≈ 55.3 µM) | % Growth Inhibition (PC-3; CERAMIDE (25 μg/nl) alone): 8% | tumor weight (Tu138 cell-tumor; ceramide alone 500 μg/0.2 mL s.c. thrice weekly, excised day 45): substantial reduction in tumor weight | tumor size (Tu138 cell-tumor; ceramide alone 500 μg/0.2 mL s.c. thrice weekly, week 5): slight decrease in tumor size | apoptosis (TUNEL) (Jurkat cells [8]; 12.5 μg/ml of ceramide): 0.41% | apoptosis (TUNEL) (Jurkat cells [8]; 25 μg/ml of ceramide): 0.33% | % Growth Inhibition (HT29; CERAMIDE (25 μg/nl) alone, HT29): 61%

CC(=O)O[C@H]1C(=O)[C@@]2(C)[C@H]([C@H](OC(=O)c3ccccc3)[C@]3(O)C[C@H](OC(=O)[C@H](O)[C@@H](NC(=O)c4ccccc4)c4ccccc4)C(C)=C1C3(C)C)[C@]1(OC(C)=O)CO[C@@H]1C[C@@H]2O [Paclitaxel]
inhibition at 0.6 µg/mL (LnCap; Homo sapiens, LNCaP, read-out: % Growth Inhibition): 13% | dose related toxicity (recurrent breast cancer; 250 mg/m^2): severe | complete response rate (recurrent breast cancer; [9]): 12% | partial response rate (recurrent breast cancer; [9]): 44% | apoptosis (TUNEL) (Tu138 cells [1]; paclitaxel 600 ng/ml alone, 24 hours): 18.4% | apoptosis (TUNEL) (Tu138 cells [1]; paclitaxel 600 ng/ml alone, 48 hours): 54.8% | inhibition at 0.6 µg/mL (Jurkat; [10]): 55% | number of cells in G2/M phase (MCF-7; higher than ID50 paclitaxel concentrations): 38% | cells blocked in G2/M phase of the cell cycle (MCF-7; lower than ID50 paclitaxel concentrations (0.6–6.0 ng/ml)): greater than 55% | hypodiploid (sub-G1) cell population (Jurkat cells [2]; 0.6 and 6.0 ng/ml paclitaxel each): approximately 25% | cell population in S phase (Jurkat cells [2]; paclitaxel 0.6 ng/ml alone): 31.8% | decrease of cells in the G0–G1 phase (Jurkat cells [2]; paclitaxel 0.6 ng/ml alone): 13.3% | total cell population in the G2-M phase (Jurkat cells [2]; paclitaxel 0.6 ng/ml alone): 22.2% | cell population in S phase (Jurkat cells [2]; paclitaxel 6.0 ng/ml alone): 27% | decrease of cells in the G0–G1 phase (Jurkat cells [2]; paclitaxel 6.0 ng/ml alone): 23.5% | total cell population in the G2-M phase (Jurkat cells [2]; paclitaxel 6.0 ng/ml alone): 38.2% | increase in the G2-M cell population vs untreated control (Jurkat cells [2]; paclitaxel 0.6 or 6.0 ng/ml alone): 2–3 fold | ID50 (cytotoxicity) (tumor cell lines; paclitaxel, most tumor cell lines tested): 0.006 to 0.06 µg/mL | inhibition at 0.6 µg/mL (RWP-2; [10]): 2% | Tumor Size (mm^2) at Week 5 (Tu138 cells [3]): 176.0 ± 90.3 mm^2 | reduction in tumor growth / tumor size vs vehicle control (Tu138 cells [3]): 11.1% | concentrations that effectively blocked thymidine incorporation (Jurkat cells [4]; 10% fetal bovine serum): higher than 0.06 ng/ml | inhibition at 0.0006 µg/mL (Jurkat cells [4]; Homo sapiens, Jurkat, read-out: growth inhibition): 56.5% | [3H]thymidine uptake counts ± SD (Jurkat cells [4]; Taxol 0.6 ng/ml, Experiment 1): 52675 ± 7478 cpm | [3H]thymidine uptake counts ± SD (Jurkat cells [4]; Taxol 0.6 ng/ml, Experiment 2): 95563 ± 6427 cpm | [3H]thymidine uptake counts ± SD (Jurkat cells [4]; Taxol 0.6 ng/ml, Experiment 3): 22771 ± 5113 cpm | [3H]thymidine uptake counts ± SD (Jurkat cells [4]; Taxol 0.6 ng/ml, Experiment 4): 89621 ± 17579 cpm | [3H]thymidine uptake counts ± SD (Jurkat cells [4]; Taxol 0.6 ng/ml, Experiment 5): 98694 ± 32045 cpm | [3H]thymidine uptake counts ± SD (Jurkat cells [4]; Taxol 6.0 ng/ml, Experiment 1): 16592 ± 782 cpm | [3H]thymidine uptake counts ± SD (Jurkat cells [4]; Taxol 6.0 ng/ml, Experiment 2): 33443 ± 17976 cpm | [3H]thymidine uptake counts ± SD (Jurkat cells [4]; Taxol 6.0 ng/ml, Experiment 3): 13400 ± 849 cpm | [3H]thymidine uptake counts ± SD (Jurkat cells [4]; Taxol 6.0 ng/ml, Experiment 4): 35466 ± 7576 cpm | [3H]thymidine uptake counts ± SD (Jurkat cells [4]; Taxol 6.0 ng/ml, Experiment 5): 10295 ± 353 cpm | ED50 (cell growth inhibition) (Jurkat cells [4]; paclitaxel alone, n=5, 3-day exposure assay): approximately 0.5 ng/ml | effect of serum level on growth inhibition (Jurkat cells [4]; paclitaxel alone, serum 10% to 1%): unaffected by variation of serum levels | morphological changes (Wright's stain) (Jurkat cells [5]; 0.6 and 6.0 ng/ml of paclitaxel alone): apoptotic bodies were noted amid cell shrinkage and nuclear and membrane blebbing | tumor size / tumor burden reduction in comparison to control (vehicle) (Tu138 tumor): 29% | inhibition at 0.6 µg/mL (TU138; [10]): 10% | cells blocked in the G2-M phase (Tu138 cells [6]; 24 hours): 61.8% | cells blocked in the G2-M phase (Tu138 cells [6]; 48 hours): 58.2% | ED50 (cytotoxicity, MTT) (Tu138 cells [7]; paclitaxel alone): 1.92 ± 1.2 µg/mL (≈ 2.25 µM) | inhibition at 0.6 µg/mL (PC-3; [10]): 16% | tumor growth compared with control (Tu138 cell-tumor; paclitaxel alone 120 μg/0.1 mL s.c. thrice weekly): grew aggressively in control and paclitaxel treated mice almost equally; also recorded: equivalent growth | apoptosis (TUNEL) (Jurkat cells [8]; 0.6 ng/ml of paclitaxel): 19.6% | inhibition at 0.6 µg/mL (HT29; Homo sapiens, HT-29, read-out: % Growth Inhibition): 16%
